According to PubChem BioAssay AID1259407 (Chemical Carcinogenesis Research Information System (CCRIS), 2018):
Calls of active or inactive are those of the source. How the calls were made is not given here.

Test system: CCRIS mutagenicity, Ames/micronucleus/aberration tests
Experiment: CCRIS mutagenicity studies
[1] = Test System: AMES SALMONELLA TYPHIMURIUM, Strain/Indicator: TA98, Metabolic Activation: NONE, Method: PREINCUBATION
[2] = Test System: AMES SALMONELLA TYPHIMURIUM, Strain/Indicator: TA100, Metabolic Activation: NONE, Method: PREINCUBATION
[3] = Test System: AMES SALMONELLA TYPHIMURIUM, Strain/Indicator: TA102, Metabolic Activation: NONE, Method: PREINCUBATION
[4] = Test System: AMES SALMONELLA TYPHIMURIUM, Strain/Indicator: TA98, Metabolic Activation: NONE, Method: STANDARD PLATE
[5] = Test System: AMES SALMONELLA TYPHIMURIUM, Strain/Indicator: TA100, Metabolic Activation: NONE, Method: STANDARD PLATE
[6] = Test System: AMES SALMONELLA TYPHIMURIUM, Strain/Indicator: TA98, Metabolic Activation: RAT, LIVER, S-9, AROCLOR 1254, Method: STANDARD PLATE
[7] = Test System: AMES SALMONELLA TYPHIMURIUM, Strain/Indicator: TA100, Metabolic Activation: RAT, LIVER, S-9, AROCLOR 1254, Method: STANDARD PLATE

O=C1CCCCCCCCCCCCCCO1
mutagenic call [1]: inactive; negative
mutagenic call (Test System: AMES SALMONELLA TYPHIMURIUM, Strain/Indicator: TA98, Metabolic Activation: RAT LIVER S-9, PHENOBARBITAL AND BETA-NAPHTHOFLAVONE, Method: PREINCUBATION): inactive; negative
mutagenic call [2]: inactive; negative
mutagenic call (Test System: AMES SALMONELLA TYPHIMURIUM, Strain/Indicator: TA100, Metabolic Activation: RAT LIVER S-9, PHENOBARBITAL AND BETA-NAPHTHOFLAVONE, Method: PREINCUBATION): inactive; negative
mutagenic call [3]: inactive; negative
mutagenic call (Test System: AMES SALMONELLA TYPHIMURIUM, Strain/Indicator: TA102, Metabolic Activation: RAT LIVER S-9, PHENOBARBITAL AND BETA-NAPHTHOFLAVONE, Method: PREINCUBATION): inactive; negative
mutagenic call (Test System: AMES SALMONELLA TYPHIMURIUM, Strain/Indicator: TA104, Metabolic Activation: NONE, Method: PREINCUBATION): inactive; negative
mutagenic call (Test System: AMES SALMONELLA TYPHIMURIUM, Strain/Indicator: TA104, Metabolic Activation: RAT LIVER S-9, PHENOBARBITAL AND BETA-NAPHTHOFLAVONE, Method: PREINCUBATION): inactive; negative
mutagenic call (Test System: AMES SALMONELLA TYPHIMURIUM, Strain/Indicator: TA1535, Metabolic Activation: NONE, Method: PREINCUBATION): inactive; negative
mutagenic call (Test System: AMES SALMONELLA TYPHIMURIUM, Strain/Indicator: TA1535, Metabolic Activation: RAT LIVER S-9, PHENOBARBITAL AND BETA-NAPHTHOFLAVONE, Method: PREINCUBATION): inactive; negative
mutagenic call (Test System: AMES SALMONELLA TYPHIMURIUM, Strain/Indicator: TA1537, Metabolic Activation: NONE, Method: PREINCUBATION): inactive; negative
mutagenic call (Test System: AMES SALMONELLA TYPHIMURIUM, Strain/Indicator: TA1537, Metabolic Activation: RAT LIVER S-9, PHENOBARBITAL AND BETA-NAPHTHOFLAVONE, Method: PREINCUBATION): inactive; negative
mutagenic call (Test System: E.COLI, Strain/Indicator: WP2UVRA/PKM101, Metabolic Activation: NONE, Method: PREINCUBATION): inactive; negative
mutagenic call (Test System: E.COLI, Strain/Indicator: WP2UVRA/PKM101, Metabolic Activation: RAT LIVER S-9, PHENOBARBITAL AND BETA-NAPHTHOFLAVONE, Method: PREINCUBATION): inactive; negative
mutagenic call (Test System: E.COLI, Strain/Indicator: WP2UVRA, Metabolic Activation: NONE, Method: PREINCUBATION): inactive; negative
mutagenic call (Test System: E.COLI, Strain/Indicator: WP2UVRA, Metabolic Activation: RAT LIVER S-9, PHENOBARBITAL AND BETA-NAPHTHOFLAVONE, Method: PREINCUBATION): inactive; negative

CCc1cccc(CC)c1NC(C)=O
mutagenic call [1]: inactive; negative
mutagenic call (Test System: AMES SALMONELLA TYPHIMURIUM, Strain/Indicator: TA98, Metabolic Activation: RAT, LIVER, MICROSOMES, PHENOBARBITAL, Method: PREINCUBATION): inactive; negative

Cc1c2c(c(C)c3ccccc13)-c1cccc3cccc-2c13
mutagenic call (Test System: AMES SALMONELLA TYPHIMURIUM, Strain/Indicator: TA100, Metabolic Activation: RAT, LIVER, S-9, AROCLOR 1254): active; positive

O=P(O)(O)Oc1c(Br)cc(Br)cc1-c1cc(Br)cc(Br)c1O
mutagenic call [4]: inactive; negative
mutagenic call (Test System: AMES SALMONELLA TYPHIMURIUM, Strain/Indicator: TA98, Metabolic Activation: RAT, LIVER, S-9, KANECHLOR 400, Method: STANDARD PLATE): inactive; negative
mutagenic call [5]: inactive; negative
mutagenic call (Test System: AMES SALMONELLA TYPHIMURIUM, Strain/Indicator: TA100, Metabolic Activation: RAT, LIVER, S-9, KANECHLOR 400, Method: STANDARD PLATE): inactive; negative
mutagenic call (Test System: AMES SALMONELLA TYPHIMURIUM, Strain/Indicator: TA1535, Metabolic Activation: NONE, Method: STANDARD PLATE): inactive; negative
mutagenic call (Test System: AMES SALMONELLA TYPHIMURIUM, Strain/Indicator: TA1535, Metabolic Activation: RAT, LIVER, S-9, KANECHLOR 400, Method: STANDARD PLATE): inactive; negative
mutagenic call (Test System: AMES SALMONELLA TYPHIMURIUM, Strain/Indicator: TA1537, Metabolic Activation: NONE, Method: STANDARD PLATE): inactive; negative
mutagenic call (Test System: AMES SALMONELLA TYPHIMURIUM, Strain/Indicator: TA1537, Metabolic Activation: RAT, LIVER, S-9, KANECHLOR 400, Method: STANDARD PLATE): inactive; negative
mutagenic call (Test System: AMES SALMONELLA TYPHIMURIUM, Strain/Indicator: TA1538, Metabolic Activation: NONE, Method: STANDARD PLATE): inactive; negative
mutagenic call (Test System: AMES SALMONELLA TYPHIMURIUM, Strain/Indicator: TA1538, Metabolic Activation: RAT, LIVER, S-9, KANECHLOR 400, Method: STANDARD PLATE): inactive; negative

Oc1cc2ccccc2c2ccc3ccccc3c12
mutagenic call [4]: inactive; negative
mutagenic call [6]: inactive; negative
mutagenic call [5]: inactive; negative
mutagenic call [7]: inactive; negative

Br/C=C/Br
mutagenic call (Test System: AMES SALMONELLA TYPHIMURIUM, Strain/Indicator: TA97, Metabolic Activation: NONE, Method: STANDARD PLATE): inactive; negative
mutagenic call (Test System: AMES SALMONELLA TYPHIMURIUM, Strain/Indicator: TA97, Metabolic Activation: RAT, LIVER, S-9, AROCLOR 1254, Method: STANDARD PLATE): active; positive
mutagenic call [4]: active; positive
mutagenic call [6]: active; positive
mutagenic call [5]: active; positive
mutagenic call [7]: active; positive
mutagenic call (Test System: AMES SALMONELLA TYPHIMURIUM, Strain/Indicator: TA104, Metabolic Activation: NONE, Method: STANDARD PLATE): inactive; negative
mutagenic call (Test System: AMES SALMONELLA TYPHIMURIUM, Strain/Indicator: TA104, Metabolic Activation: RAT, LIVER, S-9, AROCLOR 1254, Method: STANDARD PLATE): active; positive

CCC(=O)C(C)=O
mutagenic call [1]: inactive; negative
mutagenic call (Test System: AMES SALMONELLA TYPHIMURIUM, Strain/Indicator: TA98, Metabolic Activation: RAT, LIVER, S-9, AROCLOR 1254, Method: PREINCUBATION): inactive; negative
mutagenic call [2]: inactive; negative
mutagenic call (Test System: AMES SALMONELLA TYPHIMURIUM, Strain/Indicator: TA100, Metabolic Activation: RAT, LIVER, S-9, AROCLOR 1254, Method: PREINCUBATION): inactive; negative
mutagenic call [3]: inactive; negative
mutagenic call (Test System: AMES SALMONELLA TYPHIMURIUM, Strain/Indicator: TA102, Metabolic Activation: RAT, LIVER, S-9, AROCLOR 1254, Method: PREINCUBATION): inactive; negative
